# Molecular target: T1, human PAH with the R408W mutation (A375 R408W cells) (Homo sapiens, UniProt P00439, R408W)
# T1 construct: expressed in transfected cells
# T1 sequence (P00439 1-452 R408W): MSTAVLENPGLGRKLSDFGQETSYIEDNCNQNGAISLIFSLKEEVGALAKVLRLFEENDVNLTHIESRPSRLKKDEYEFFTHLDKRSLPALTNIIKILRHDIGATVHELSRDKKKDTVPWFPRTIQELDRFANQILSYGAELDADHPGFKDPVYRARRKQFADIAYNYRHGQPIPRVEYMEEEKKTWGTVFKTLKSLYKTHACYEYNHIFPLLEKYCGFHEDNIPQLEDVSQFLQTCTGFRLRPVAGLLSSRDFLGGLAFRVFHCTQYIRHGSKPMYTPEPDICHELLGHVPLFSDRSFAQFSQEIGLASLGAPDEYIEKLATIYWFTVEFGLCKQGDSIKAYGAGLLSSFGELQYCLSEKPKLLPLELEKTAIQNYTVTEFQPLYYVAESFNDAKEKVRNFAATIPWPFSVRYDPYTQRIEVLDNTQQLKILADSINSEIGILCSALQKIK
# Assay: Cell Based Phenylalanine Flux Assay
# Details: A375 R408W cells; 24 hrs with compound, then 20 μM sepiapterin and 800 μM 13C9,15N-Phenylalanine for 4 hours; 13C-Tyrosine by LC-MS; average where tested multiple times
# Method in brief: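 Stable R408W PAH A375 cells: 24 h compound pretreatment in duplicate, then 4 h with 800 μM isotope-labelled Phe and 20 μM sepiapterin. Labelled Tyr output by LC-MS; AC50 averaged where repeated.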
row,Compound,AC50
1,"O=C(c1nnc(-c2ccc(F)cn2)o1)N1CCc2[nH]cnc2[C@@H]1c1nc2cc(F)ccc2o1 [Example 34, (R)-(4-(5-fluorobenzo[d]oxazol-2-yl)-6,7-dihydro-1H-imidazo[4,5-c]pyridin-5(4H)-yl)(5-(5-fluoropyridin-2-yl)-1,3,4-oxadiazol-2-yl)methanone]",1000 to 5000 nM
2,"Cn1cnc(-c2nnc(C(=O)N3CCc4[nH]cnc4[C@@H]3c3nc4c(F)ccc(F)c4o3)o2)c1 [Example 818, (R)-(4-(4,7-difluorobenzo[d]oxazol-2-yl)-6,7-dihydro-1H-imidazo[4,5-c]pyridin-5(4H)-yl)(5-(1-methyl-1H-imidazol-4-yl)-1,3,4-oxadiazol-2-yl)methanone]",1000 to 5000 nM
3,O=C(c1ccnn1C(F)F)N1CCc2[nH]cnc2[C@H]1c1nc2cc(F)cc(F)c2o1 [Example 609],500 to 1000 nM
4,"Cn1ccc(-c2nnc(C(=O)N3CCc4[nH]cnc4[C@H]3c3nc4cccc(F)c4o3)o2)n1 [Example 337, (S)-(4-(7-fluorobenzo[d]oxazol-2-yl)-6,7-dihydro-1H-imidazo[4,5-c]pyridin-5(4H)-yl)(5-(1-methyl-1H-pyrazol-3-yl)-1,3,4-oxadiazol-2-yl)methanone]",≤ 500 nM
5,"O=C(c1nnc(-c2ccccn2)o1)N1Cc2[nH]cnc2[C@@H]1c1nc2ccccc2o1 [Example 938, (R)-(4-(benzo[d]oxazol-2-yl)-4,6-dihydropyrrolo[3,4-d]imidazol-5(1H)-yl)(5-(pyridin-2-yl)-1,3,4-oxadiazol-2-yl)methanone]",1000 to 5000 nM
6,"Cc1ccc2oc([C@@H]3c4nc[nH]c4CCN3C(=O)c3oc(-c4ccccn4)nc3C(F)F)nc2c1 [Example 737, (S)-(4-(difluoromethyl)-2-(pyridin-2-yl)oxazol-5-yl)(4-(5-methylbenzo[d]oxazol-2-yl)-6,7-dihydro-1H-imidazo[4,5-c]pyridin-5(4H)-yl)methanone]",≤ 500 nM
7,"CC(C)(O)c1nc(C(F)F)c(C(=O)N2CCc3[nH]cnc3[C@@H]2c2nc3cc(Cl)ccc3o2)o1 [Example 376, (R)-(4-(5-chlorobenzo[d]oxazol-2-yl)-6,7-dihydro-1H-imidazo[4,5-c]pyridin-5(4H)-yl)(4-(difluoromethyl)-2-(2-hydroxypropan-2-yl)oxazol-5-yl)methanone]",1000 to 5000 nM
8,"Cn1nc(Br)nc1C(=O)N1CCc2[nH]cnc2[C@@H]1c1nc2cccc(F)c2o1 [Example 474, (R)-(3-bromo-1-methyl-1H-1,2,4-triazol-5-yl)(4-(7-fluorobenzo[d]oxazol-2-yl)-6,7-dihydro-1H-imidazo[4,5-c]pyridin-5(4H)-yl)methanone]",1000 to 5000 nM
9,"COc1cccc2oc([C@@H]3c4nc[nH]c4CCN3C(=O)c3ccnn3C(F)F)nc12 [Example 603, (S)-(1-(difluoromethyl)-1H-pyrazol-5-yl)(4-(4-methoxybenzo[d]oxazol-2-yl)-6,7-dihydro-1H-imidazo[4,5-c]pyridin-5(4H)-yl)methanone]",≤ 500 nM
10,"O=C(c1oc(-c2ccc(F)cn2)nc1C(F)F)N1CCc2[nH]cnc2[C@H]1c1nc2cc(F)ccc2o1 [Example 418, (S)-(4-(difluoromethyl)-2-(5-fluoropyridin-2-yl)oxazol-5-yl)(4-(5-fluorobenzo[d]oxazol-2-yl)-6,7-dihydro-1H-imidazo[4,5-c]pyridin-5(4H)-yl)methanone]",≤ 500 nM
11,"C[C@@H](O)c1nc(C(F)F)c(C(=O)N2CCc3[nH]cnc3[C@@H]2c2nc3c(F)cccc3o2)o1 [Example 230, (4-(difluoromethyl)-2-((R)-1-hydroxyethyl)oxazol-5-yl)((R)-4-(4-fluorobenzo[d]oxazol-2-yl)-6,7-dihydro-1H-imidazo[4,5-c]pyridin-5(4H)-yl)methanone]",1000 to 5000 nM
12,"Cn1nccc1-c1nnc(C(=O)N2CCc3[nH]cnc3[C@@H]2c2nc3cc(F)ccc3o2)o1 [Example 132, (R)-(4-(5-fluorobenzo[d]oxazol-2-yl)-6,7-dihydro-1H-imidazo[4,5-c]pyridin-5(4H)-yl)(5-(1-methyl-1H-pyrazol-5-yl)-1,3,4-oxadiazol-2-yl)methanone]",1000 to 5000 nM
13,"O=C(c1nnc(-c2ncccc2F)o1)N1CCc2[nH]cnc2[C@@H]1c1nc2c(F)ccc(F)c2o1 [Example 799, (R)-(4-(4,7-difluorobenzo[d]oxazol-2-yl)-6,7-dihydro-1H-imidazo[4,5-c]pyridin-5(4H)-yl)(5-(3-fluoropyridin-2-yl)-1,3,4-oxadiazol-2-yl)methanone]",500 to 1000 nM
14,"Cc1ccc2oc([C@@H]3c4nc[nH]c4CCN3C(=O)c3ocnc3C(F)F)nc2c1 [Example 137, (S)-(4-(difluoromethyl)oxazol-5-yl)(4-(5-methylbenzo[d]oxazol-2-yl)-6,7-dihydro-1H-imidazo[4,5-c]pyridin-5(4H)-yl)methanone]",≤ 500 nM
15,"O=C(c1ocnc1C(F)F)N1CCc2[nH]cnc2[C@H]1c1nc2cc(Br)ccc2o1 [Example 149, (S)-(4-(5-bromobenzo[d]oxazol-2-yl)-6,7-dihydro-1H-imidazo[4,5-c]pyridin-5(4H)-yl)(4-(difluoromethyl)oxazol-5-yl)methanone]",≤ 500 nM
16,"Cc1ccc2oc([C@H]3c4nc[nH]c4CCN3C(=O)c3oc(-c4ccn(C)n4)nc3C(F)F)nc2c1 [Example 756, (R)-(4-(difluoromethyl)-2-(1-methyl-1H-pyrazol-3-yl)oxazol-5-yl)(4-(5-methylbenzo[d]oxazol-2-yl)-6,7-dihydro-1H-imidazo[4,5-c]pyridin-5(4H)-yl)methanone]",1000 to 5000 nM
17,"O=C(c1ocnc1C(F)F)N1CCc2[nH]cnc2[C@@H]1c1nc2cccc(C(F)(F)F)c2o1 [Example 494, (R)-(4-(difluoromethyl)oxazol-5-yl)(4-(7-(trifluoromethyl)benzo[d]oxazol-2-yl)-6,7-dihydro-1H-imidazo[4,5-c]pyridin-5(4H)-yl)methanone]",≤ 500 nM
18,"Cc1nc(-c2cnn(C)c2)oc1C(=O)N1CCc2[nH]cnc2[C@H]1c1nc2cccc(F)c2o1 [Example 596, (S)-(4-(7-fluorobenzo[d]oxazol-2-yl)-6,7-dihydro-1H-imidazo[4,5-c]pyridin-5(4H)-yl)(4-methyl-2-(1-methyl-1H-pyrazol-4-yl)oxazol-5-yl)methanone]",≤ 500 nM
19,"O=C(c1oc(-c2cccnc2)nc1C(F)F)N1CCc2[nH]cnc2[C@H]1c1nc2cccc(F)c2o1 [Example 590, (S)-(4-(difluoromethyl)-2-(pyridin-3-yl)oxazol-5-yl)(4-(7-fluorobenzo[d]oxazol-2-yl)-6,7-dihydro-1H-imidazo[4,5-c]pyridin-5(4H)-yl)methanone]",≤ 500 nM
20,"O=C(c1oc(-c2ccccn2)nc1C(F)(F)F)N1CCc2[nH]cnc2[C@H]1c1nc2cccc(F)c2o1 [Example 638, (S)-(4-(7-fluorobenzo[d]oxazol-2-yl)-6,7-dihydro-1H-imidazo[4,5-c]pyridin-5(4H)-yl)(2-(pyridin-2-yl)-4-(trifluoromethyl)oxazol-5-yl)methanone]",≤ 500 nM
21,"Cn1nc(C(F)F)cc1C(=O)N1CCc2[nH]cnc2[C@@H]1c1nc2ccccc2o1 [Example 732, (R)-(4-(benzo[d]oxazol-2-yl)-6,7-dihydro-1H-imidazo[4,5-c]pyridin-5(4H)-yl)(3-(difluoromethyl)-1-methyl-1H-pyrazol-5-yl)methanone]",≥ 5000 nM
22,"Cc1cc(F)cc2nc([C@H]3c4nc[nH]c4CCN3C(=O)c3oc(C(C)(C)O)nc3C(F)F)oc12 [Example 656, (R)-(4-(difluoromethyl)-2-(2-hydroxypropan-2-yl)oxazol-5-yl)(4-(5-fluoro-7-methylbenzo[d]oxazol-2-yl)-6,7-dihydro-1H-imidazo[4,5-c]pyridin-5(4H)-yl)methanone]",1000 to 5000 nM

# Same assay, conditions: A375 cells expressing R408W PAH; 24 hrs with compound, then 20 μM sepiapterin and 800 μM 13C9,15N-Phenylalanine for 4 hours; 13C-Tyrosine by LC-MS; average where tested multiple times
row,Compound,AC50
1,O=C(c1nnc(-c2ncccn2)o1)N1CCc2[nH]cnc2C1c1nc2cc(F)ccc2o1 (stereo not shown),1000 to 5000 nM
2,O=C(c1cnn2cc(N3CCC(F)CC3)ccc12)N1CCc2[nH]cnc2C1c1nc2cc(F)ccc2o1 (stereo not shown),≥ 5000 nM
3,Cc1nc(C2(O)CCC2)oc1C(=O)N1CCc2[nH]cnc2C1c1nc2cc(F)ccc2o1 (stereo not shown),≥ 5000 nM
4,O=C(c1cnn2cc(CN3CCOCC3)ccc12)N1CCc2[nH]cnc2C1c1nc2cc(F)ccc2o1 (stereo not shown),1000 to 5000 nM
5,CC(C)(O)c1ncc(C(=O)N2CCc3[nH]cnc3C2c2nc3ccccc3o2)o1 (stereo not shown),1000 to 5000 nM
6,O=C(Cc1cnn2ccccc12)N1CCc2[nH]cnc2C1c1nc2cc(F)ccc2o1 (stereo not shown),1000 to 5000 nM
7,NCc1ccc2c(C(=O)N3CCc4[nH]cnc4C3c3nc4cc(F)ccc4o3)cnn2c1 (stereo not shown),1000 to 5000 nM
8,O=C(c1cnn2cc(CCN3CC(F)C3)ccc12)N1CCc2[nH]cnc2C1c1nc2cc(F)ccc2o1 (stereo not shown),1000 to 5000 nM
9,COCc1ncc(C(=O)N2CCc3[nH]cnc3C2c2nc3cc(F)ccc3o2)o1 (stereo not shown),1000 to 5000 nM
10,CC(C)(O)c1nc(Br)c(C(=O)N2CCc3[nH]cnc3C2c2nc3cc(F)ccc3o2)s1 (stereo not shown),≥ 5000 nM
11,"Cc1nc([C@H](C)O)oc1C(=O)N1CCc2[nH]cnc2C1c1nc2cc(F)ccc2o1 (single isomer, unassigned)",1000 to 5000 nM
12,Cc1ccc2nc(C3c4nc[nH]c4CCN3C(=O)c3nnc(C)o3)oc2c1 (stereo not shown),≥ 5000 nM

# Reference: US20250171437A1 (Agios Pharmaceuticals,Inc., priority 2022, published 2025)
